The record followed here is patent US9783527B2, “Indazole ureas and method of use” (AbbVie Inc., priority 2014, dated 2017).

Each structure is given as a SMILES string.

In general, IC50 refers to the concentration needed to halve the response being measured.

For this experiment, the target named is human Nav1.7 (Homo sapiens (Human), UniProt Q15858). In words: FRET-based membrane potential assay, recombinant human sodium channel Nav1.7. In kind it is cell-based. Particulars: HEK293 cells stably expressing recombinant human Nav1.7; depolarization with veratridine (EC80) + scorpion venom. In short, it runs like this: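 IC50 derived by four-parameter Hill fit of percent inhibition of depolarization, measured as peak F440-480/F565-625 ratio over baseline. Stable human Nav1.7 HEK293 cells, dye-loaded with CC2-DMPE and DiSBAC2(3)/VABSC-1 at room temperature, received compound 3 min ahead of veratridine (EC80) plus scorpion venom.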
human Nav1.7, sequence (Q15858 whole entry): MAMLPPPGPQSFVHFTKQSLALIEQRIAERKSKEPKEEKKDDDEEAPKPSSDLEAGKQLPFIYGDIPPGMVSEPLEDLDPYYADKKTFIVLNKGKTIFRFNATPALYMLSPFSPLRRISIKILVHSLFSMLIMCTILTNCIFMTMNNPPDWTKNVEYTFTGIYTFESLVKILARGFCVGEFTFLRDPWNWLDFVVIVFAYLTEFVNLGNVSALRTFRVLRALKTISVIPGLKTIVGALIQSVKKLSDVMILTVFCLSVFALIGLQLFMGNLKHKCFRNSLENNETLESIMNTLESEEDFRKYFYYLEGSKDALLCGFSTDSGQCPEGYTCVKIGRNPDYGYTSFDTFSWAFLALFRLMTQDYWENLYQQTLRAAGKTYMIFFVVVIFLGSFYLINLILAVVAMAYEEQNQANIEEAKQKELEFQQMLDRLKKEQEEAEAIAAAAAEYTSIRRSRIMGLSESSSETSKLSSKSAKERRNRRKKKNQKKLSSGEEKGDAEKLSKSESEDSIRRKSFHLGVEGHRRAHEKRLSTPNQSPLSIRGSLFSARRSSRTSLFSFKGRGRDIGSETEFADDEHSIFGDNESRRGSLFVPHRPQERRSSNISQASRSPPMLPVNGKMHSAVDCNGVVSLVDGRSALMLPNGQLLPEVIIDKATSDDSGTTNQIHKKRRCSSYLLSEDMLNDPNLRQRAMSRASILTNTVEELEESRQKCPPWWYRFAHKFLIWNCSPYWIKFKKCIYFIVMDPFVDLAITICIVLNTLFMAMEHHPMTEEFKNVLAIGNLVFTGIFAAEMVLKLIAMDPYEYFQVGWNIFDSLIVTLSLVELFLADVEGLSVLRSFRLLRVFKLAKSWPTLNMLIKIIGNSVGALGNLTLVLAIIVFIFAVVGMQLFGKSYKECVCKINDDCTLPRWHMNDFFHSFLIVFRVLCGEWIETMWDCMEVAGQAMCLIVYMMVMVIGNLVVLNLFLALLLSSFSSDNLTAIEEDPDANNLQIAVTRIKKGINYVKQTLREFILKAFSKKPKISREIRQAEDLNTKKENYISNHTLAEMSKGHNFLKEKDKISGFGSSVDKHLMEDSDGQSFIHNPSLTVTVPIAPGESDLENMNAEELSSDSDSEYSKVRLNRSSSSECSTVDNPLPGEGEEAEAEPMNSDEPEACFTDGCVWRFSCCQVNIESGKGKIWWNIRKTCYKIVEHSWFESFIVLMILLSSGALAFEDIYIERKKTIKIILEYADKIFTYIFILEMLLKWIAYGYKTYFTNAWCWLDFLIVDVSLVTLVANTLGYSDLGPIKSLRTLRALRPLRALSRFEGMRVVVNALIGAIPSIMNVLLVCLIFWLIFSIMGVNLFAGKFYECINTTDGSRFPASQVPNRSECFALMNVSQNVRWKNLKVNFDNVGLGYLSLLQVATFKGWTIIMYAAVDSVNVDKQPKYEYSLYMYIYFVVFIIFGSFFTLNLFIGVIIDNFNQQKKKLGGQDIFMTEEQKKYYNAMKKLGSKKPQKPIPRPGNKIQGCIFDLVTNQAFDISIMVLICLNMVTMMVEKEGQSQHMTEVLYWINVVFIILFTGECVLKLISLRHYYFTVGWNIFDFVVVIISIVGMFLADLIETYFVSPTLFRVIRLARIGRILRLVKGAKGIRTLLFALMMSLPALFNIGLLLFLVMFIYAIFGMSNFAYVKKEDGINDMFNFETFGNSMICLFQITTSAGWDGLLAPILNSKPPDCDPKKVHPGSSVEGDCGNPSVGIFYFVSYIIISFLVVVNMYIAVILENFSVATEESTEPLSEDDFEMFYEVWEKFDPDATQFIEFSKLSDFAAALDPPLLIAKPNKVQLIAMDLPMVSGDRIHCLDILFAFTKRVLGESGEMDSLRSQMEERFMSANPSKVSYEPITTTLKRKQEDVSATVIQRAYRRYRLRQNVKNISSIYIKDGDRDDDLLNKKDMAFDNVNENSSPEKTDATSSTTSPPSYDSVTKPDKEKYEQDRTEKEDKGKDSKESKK
Regarding `CN1CCCC2CN(C(=O)CN3CCN(c4cccc5c4cnn5-c4ccccc4F)C3=O)CC21` (centres unmarked) [Example 112, 1-[1-(2-fluorophenyl)-1H-indazol-4-yl]-3-[2-(1-methyloctahydro-6H-pyrrolo[3,4-b]pyridin-6-yl)-2-oxoethyl]imidazolidin-2-one], the IC50 stood at 2.69 µM.
Then `O=C1N(CC2(OCc3ccccc3)CC2)CCN1c1cccc2c1cnn2-c1ccccc1F` [Example 229, 1-{[1-(benzyloxy)cyclopropyl]methyl}-3-[1-(2-fluorophenyl)-1H-indazol-4-yl]imidazolidin-2-one], with 9.08 µM; and `CCC(O)(CC(C)C)CN1CCN(c2cccc3c2cnn3-c2ccccc2F)C1=O` (centres unmarked) [Example 148, 1-(2-ethyl-2-hydroxy-4-methylpentyl)-3-[1-(2-fluorophenyl)-1H-indazol-4-yl]imidazolidin-2-one], with 2.28 µM; and `O=C1N(Cc2cnco2)CCN1c1cccc2c1cnn2-c1ccccc1F` [Example 231, 1-[1-(2-fluorophenyl)-1H-indazol-4-yl]-3-(1,3-oxazol-5-ylmethyl)imidazolidin-2-one], with 3.65 µM.
Turning to `CC(=O)N1CC(CN2CCN(c3cccc4c3cnn4-c3ccccc3F)C2=O)C1` [Example 216, 1-[(1-acetylazetidin-3-yl)methyl]-3-[1-(2-fluorophenyl)-1H-indazol-4-yl]imidazolidin-2-one], the IC50 was determined as 20 µM.
Turning to `Cc1cnc(CN2CCN(c3cccc4c3cnn4-c3ccccc3F)C2=O)nc1` [Example 219, 1-[1-(2-fluorophenyl)-1H-indazol-4-yl]-3-[(5-methylpyrimidin-2-yl)methyl]imidazolidin-2-one], the IC50 stood at 5.21 µM.
Turning to `O=C(CN1CCN(c2cccc3c2cnn3-c2ccccc2F)C1=O)c1ccc(F)nc1` [Example 147, 1-[1-(2-fluorophenyl)-1H-indazol-4-yl]-3-[2-(6-fluoropyridin-3-yl)-2-oxoethyl]imidazolidin-2-one], the IC50 was found to be 1.05 µM.
Take `CO[C@@H](CC(C)C)CN1CCN(c2cccc3c2cnn3-c2ccccc2F)C1=O` [Example 215, 1-[1-(2-fluorophenyl)-1H-indazol-4-yl]-3-[(2S)-2-methoxy-4-methylpentyl]imidazolidin-2-one]: the IC50 was 1.08 µM.
Take `CC(C)(C)C(=O)CN1CCN(c2cccc3c2cnn3-c2ccccc2F)C1=O` [Example 161, 1-(3,3-dimethyl-2-oxobutyl)-3-[1-(2-fluorophenyl)-1H-indazol-4-yl]imidazolidin-2-one]: the IC50 was 1.4 µM.
On to `Cc1cnc(CN2CCN(c3cccc4c3cnn4-c3ccccc3F)C2=O)cn1` [Example 257, 1-[1-(2-fluorophenyl)-1H-indazol-4-yl]-3-[(5-methylpyrazin-2-yl)methyl]imidazolidin-2-one], for which the IC50 is 3.09 µM.
Then `Cc1nc(CN2CCN(c3cccc4c3cnn4-c3ccccc3F)C2=O)c(C)o1` [Example 227, 1-[(2,5-dimethyl-1,3-oxazol-4-yl)methyl]-3-[1-(2-fluorophenyl)-1H-indazol-4-yl]imidazolidin-2-one], with 0.871 µM; and `O=C(CC1CCCCC1)CN1CCN(c2cccc3c2cnn3-c2ccccc2F)C1=O` [Example 136, 1-(3-cyclohexyl-2-oxopropyl)-3-[1-(2-fluorophenyl)-1H-indazol-4-yl]imidazolidin-2-one], with 0.928 µM; and `CCOCC1(F)CCN(C(=O)CN2CCN(c3cccc4c3cnn4-c3ccccc3F)C2=O)C1` (centres unmarked) [Example 98, 1-{2-[3-(ethoxymethyl)-3-fluoropyrrolidin-1-yl]-2-oxoethyl}-3-[1-(2-fluorophenyl)-1H-indazol-4-yl]imidazolidin-2-one], with 1.44 µM.
Then `O=C1N(CC(=O)N2CCOC3CCCCC32)CCN1c1cccc2c1cnn2-c1ccccc1F` (centres unmarked) [Example 105, 1-[1-(2-fluorophenyl)-1H-indazol-4-yl]-3-[2-(octahydro-4H-1,4-benzoxazin-4-yl)-2-oxoethyl]imidazolidin-2-one], with 1.33 µM.
